From patent US20240376123A1, “KRAS G12D INHIBITORS AND USES THEREOF” (SUZHOU ZANRONG PHARMA LIMITED, priority 2021, published 2024)

What follows are molecules tested on p-ERK in PNAC-1/HPAC cell (assay: Phospho-ERK 1/2 assay (Table 1)). Details: Homo sapiens; PNAC-1/HPAC cell, 3 hours compound incubation; read-out: p-ERK IC50.
Type: cell-based
Experimental: Allow PNAC-1/HPAC cell growth in a T75 flask in DMEM and 10% 1 fetal calf serum (FCS; Gibco), using standard tissue culture procedures until ˜80% confluency is achieved. Day 1, seed 6000 cells/well in 384 well plate and incubate at 37° C., 5% CO2. Add diluted compound by Echo 550, final DMSO is 0.5%, incubate cells at 37° C., 5% CO2 for 3 hours. Then, remove medium and fix cells with 3.7% formaldehyde in PBS (PFA) by Apricot. Wash with PBS once. Permeabilize cells with cold 100% methanol and repeat wash once with PBS once. Add Li-Cor blocking buffer to each well and incubate 1.5 hours at RT. Remove blocking buffer and add primary antibody mixture (rabbit anti pERK, mouse anti GAPDH). Incubate at 4° C. overnight. Day 2, wash with PBST (Tween-20 in PBS) with total 3 times and then add secondary antibody mixture (goat anti rabbit 800CW (1:800 dilution in the combined solution) and goat anti mouse 680RD (1:800 dilution in the combined solution)), incubate for 60 minutes at RT away from light. Repeat washing with PBST 3 times. After final wash, centrifuge plate up-side-down at 1000 rpm to remove wash solution completely from wells. Before plate scanning, clean the bottom plate surface and the Odyssey* Imager scanning bed (if applicable) with moist, lint-free tissue to avoid any obstructions during scanning. Scan plate with detection in both 700 and 800 nm channels.

Row | Compound | IC50 [nM]
1 | C#Cc1c(F)ccc2cccc(-c3nc4c5c(nc(OCC6(CN7CCOC[C@H]7C)CC6)nc5c3F)N3C[C@H]5CC[C@H](N5)[C@H]3CO4)c12 [Compound 42, (5aS)-2-(8-ethynyl-7-fluoronaphthalen-1-yl)-1-fluoro-12-((1-(((R)-3-methylmorpholino)methyl)cyclopropyl)methoxy)-5a,6,7,8,9,10-hexahydro-5H-4-oxa-3,10a,11,13,14-pentaaza-6,9-methanonaphtho[1,8-ab]heptalene] | 159
2 | Cc1c(F)ccc2cccc(-c3nc4c5c(nc(OC[C@@]67CCCN6C[C@H](F)C7)nc5c3F)N3C[C@@H]5CC[C@@H](N5)C3CO4)c12 (stereo partly drawn) [Compound 13, (6R,9S)-1-fluoro-2-(7-fluoro-8-methylnaphthalen-1-yl)-12-(((2R,7aS)-2-fluorotetrahydro-1H-pyrrolizin-7a(5H)-yl)methoxy)-5a,6,7,8,9,10-hexahydro-5H-4-oxa-3,10a,11,13,14-pentaaza-6,9-methanonaphtho[1,8-ab]heptalene] | 237
3 | C#Cc1c(F)ccc2cccc(-c3nc4c5c(nc(OCC6(CN7CCO[C@H](C)C7)CC6)nc5c3F)N3C[C@H]5CC[C@H](N5)[C@H]3CO4)c12 [Compound 41, (5aS)-2-(8-ethynyl-7-fluoronaphthalen-1-yl)-1-fluoro-12-((1-(((R)-2-methylmorpholino)methyl)cyclopropyl)methoxy)-5a,6,7,8,9,10-hexahydro-5H-4-oxa-3,10a,11,13,14-pentaaza-6,9-methanonaphtho[1,8-ab]heptalene] | 390
4 | C#Cc1c(F)ccc2cc(O)cc(-c3nc4c5c(nc(OC[C@@]67CCCN6C[C@H](F)C7)nc5c3F)N3C[C@@H]5CC[C@@H](N5)C3CO4)c12 (stereo partly drawn) [Compound 7, 5-ethynyl-6-fluoro-4-((6R,9S)-1-fluoro-12-(((2R,7aS)-2-fluorotetrahydro-1H-pyrrolizin-7a(5H)-yl)methoxy)-5a,6,7,8,9,10-hexahydro-5H-4-oxa-3,10a,11,13,14-pentaaza-6,9-methanonaphtho[1,8-ab]heptalen-2-yl)naphthalen-2-ol] | 34
5 | CCCCCCCCCC(=O)OCOC(=O)N1[C@@H]2CC[C@H]1[C@H]1COc3nc(-c4cc(O)cc5ccc(F)c(CC)c45)c(F)c4nc(OC[C@@]56CCCN5C[C@H](F)C6)nc(c34)N1C2 [Compound 45, (Decanoyloxy)methyl (5aS,6S,9R)-2-(8-ethyl-7-fluoro-3-hydroxynaphthalen-1-yl)-1-fluoro-12-(((2R,7aS)-2-fluorotetrahydro-1H-pyrrolizin-7a(5H)-yl)methoxy)-5a,6,7,8,9,10-hexahydro-5H-4-oxa-3,10a,11,13,14-pentaaza-6,9-methanonaphtho[1,8-ab]heptalene-14-carboxylate] | 3.5
6 | C#Cc1c(F)ccc2cc(O)cc(-c3nc4c5c(nc(OC[C@@]67CCCN6C[C@H](F)C7)nc5c3F)N3C[C@H]5CC[C@H](N5)[C@H]3CO4)c12 [Compound 111, 5-ethynyl-6-fluoro-4-((5aS,6S,9R)-1-fluoro-12-(((2R,7aS)-2-fluorotetrahydro-1H-pyrrolizin-7a(5H)-yl)methoxy)-5a,6,7,8,9,10-hexahydro-5H-4-oxa-3,10a,11,13,14-pentaaza-6,9-methanonaphtho[1,8-ab]heptalen-2-yl)naphthalen-2-ol] | 12
7 | N#Cc1cccc2cccc(-c3nc4c5c(nc(OC[C@@]67CCCN6C[C@H](F)C7)nc5c3F)N3C[C@@H]5CC[C@@H](N5)C3CO4)c12 (stereo partly drawn) [Compound 20, 8-((6R,9S)-1-fluoro-12-(((2R,7aS)-2-fluorotetrahydro-1H-pyrrolizin-7a(5H)-yl)methoxy)-5a,6,7,8,9,10-hexahydro-5H-4-oxa-3,10a,11,13,14-pentaaza-6,9-methanonaphtho[1,8-ab]heptalen-2-yl)-1-naphthonitrile] | 735
